Assay results taken from article PMC6395927, “Rufomycin Targets ClpC1 Proteolysis in Mycobacterium tuberculosis and M. abscessus” (Antimicrobial Agents and Chemotherapy, 2019).
Values after ≈ are worked out from the molar mass of the structure shown. Like-named read-outs stand apart in the source and are kept apart here.

Assays:
[1] = system: OVCAR 3 ovarian cancer cells; test: Cytotoxicity against cancer cell lines (CellTiter 96); assay type: cell-based; conditions: Homo sapiens; OVCAR 3, 72 h
Protocol: (§1) Human melanoma cancer cells (MDA-MB-435), human breast cancer cells (MDA-MB-231), and human ovarian cancer cells (OVCAR3) were purchased from the American Type Culture Collection (Manassas, VA). Each cell line was propagated at 37°C in 5% CO2 in RPMI 1640 medium supplemented with FBS (10%), penicillin (100 U/ml), and streptomycin (100 μg/ml). Cells in log phase were harvested by trypsinization, followed by two washing cycles to remove all traces of enzyme. A total of 5,000 cells were seeded per well of a 96-well clear, flat-bottom plate (Microtest 96; Falcon) and incubated overnight (37°C in 5% CO2). Samples dissolved in DMSO were then diluted and added to the respective wells. The cells were incubated in the presence of test substance for 72 h at 37°C and evaluated for viability with a commercial absorbance assay (CellTiter 96 AQueous One Solution cell proliferation assay; Promega Corp., Madison, WI) that measured viable cells. IC50 values are expressed in micromolar values relative to the solvent (DMSO) control.

[2] = system: MDA-MB-435 melanoma cells; test: as above; assay type: cell-based; conditions: Homo sapiens, MDA-MB-435, 72 h
Protocol: as §1

[3] = system: MDA-MB-231 breast cancer cells; test: as above; assay type: cell-based; conditions: Homo sapiens, MDA-MB-231, 72 h
Protocol: as §1

[4] = system: M. tuberculosis strain H37Rv (ATCC 27294); test: microbe, parasite or virus in culture; assay type: cell-based, Mycobacterium tuberculosis; conditions: Mycobacterium tuberculosis
[5] = system: Vero cell (ATCC CRL-81); test: cells; assay type: cell-based; conditions: Chlorocebus sabaeus, 72 h
[6] = system: M. tuberculosis Erdman (ATCC 35801) in J774A.1 macrophages; assay type: cell-based, Mycobacterium tuberculosis
[7] = system: M. abscessus; test: MBC against M. abscessus; conditions: Mycobacteroides abscessus
Protocol: Parallel plates were processed as described for M. tuberculosis. The plates were incubated at 37°C for 5 days before CFU determination.

[8] = system: J774A.1 macrophage (ATCC TIB-67); test: Cytotoxicity in mammalian cells (resazurin); assay type: cell-based, murine; conditions: Mus musculus, J774.A1; J774, 72 h
[9] = system: M. kansasii (ATCC 12478); test: microbe, parasite or virus in culture; assay type: cell-based; conditions: Mycobacterium kansasii, ATCC12478; M. kansasii; read-out: MIC

`C/C=C/C[C@@H]1NC(=O)[C@H](CC(C)C)N2C(=O)C(C[C@H](C)[C@H]2O)N(C)C(=O)[C@H](C)NC(=O)[C@H](Cc2ccc(O)c([N+](=O)[O-])c2)NC(=O)[C@H](CC(C)C)N(C)C(=O)[C@H](Cc2cn(C(C)(C)C3CO3)c3ccccc23)NC1=O` (stereo partly shown) [RUFI, rufomycin I] showed an IC50 [1] of 14 µM, an IC50 [2] of 12 µM and an IC50 [3] of 7.7 µM. The MIC [4] was 0.02 µM (≈ 0.0208 µg/mL), the MIC ([4]; read-out: MIC against M. tuberculosis) was 0.01 µM (≈ 0.0104 µg/mL) and the IC50 [5] was greater than 50 µM. For the same compound, the “activity against M. tuberculosis in murine macrophages (CFU)” value [6] was “even more potent than rifampin”, the MBC [7] was 1.2 µM (≈ 1.25 µg/mL) and the IC50 [8] was 13 µM. The MIC [9] was 0.04 µM (≈ 0.0417 µg/mL).
